This is an account of results in patent publication US12350288B2, “Inducing caspase activity” (Dow Global Technologies LLC, priority 2019, dated 2025).

For orientation: viability means the share of living cells, or the viability signal relative to a control. A low value points to more harm to the cells.

The test system of this data set is HT-29 cells (human colon; colorectal adenocarcinoma).

Experimental: HT-29 (ATCC® HTB-38™) cells (which contained approximately 1×10^6 cells per mL) were initiated and seeded into a T-25 flask containing McCoy's 5A and fetal bovine serum (10% (v/v)). […] The cells were grown in a humidified incubator (SANYO INCT-16-CMT; MCO-19AIC (UV)) maintained at 37° C. and 5% CO2. Then, the cells were rinsed with 1× Dulbecco's Phosphate-Buffered Saline and sub-cultured in T-75 flasks 1 to 3 times per week using 1× Trypsin-EDTA, applied for ≤5 minutes; enzymatic action of the trypsin-EDTA was stopped by adding complete growth medium to the detached cells. Then, upon reaching 80 to 90% confluency the cells were split into the following split ratio ranges: 1:5 to 1:16. Subculture and growth expansion activities were recorded, such as passage number, % confluency, % viability (only on experimental set-up day), and cell morphology throughout all phases. The cells were maintained in log-phase growth.
Cell culture plating was performed as follows. A cell suspension from a single 80 to 90% confluent T-75 flask was harvested with trypsin-EDTA and complete growth medium. To obtain cell concentration and viability, cell counts were obtained using a COUNTESS automated cell counter (INVITROGEN C10227; CNTR-7-CMT) in which 2 chambers of each slide were provided with 10 μL each of 1:1, 0.4% trypan-blue dye (INVITROGEN T10282) and cell suspension. […]

Substance “Poly(ethylene glycol) methyl ether tosylate” had a viability of at least 70%.
